Experimental data: ChEMBL document CHEMBL1155227, “Identification of N-(5-tert-butyl-isoxazol-3-yl)-N'-{4-[7-(2-morpholin-4-yl-ethoxy)imidazo[2,1-b][1,3]benzothiazol-2-yl]phenyl}urea dihydrochloride (AC220), a uniquely potent, selective, and efficacious FMS-like tyrosine kinase-3 (FLT3) inhibitor” (J Med Chem, 2009)

Experiments:
[1] = biological target: T1, Receptor-type tyrosine-protein kinase FLT3 (Homo sapiens, UniProt P36888); assay: biochemical; format: cell-based, HEK293
T1 sequence (P36888 whole entry): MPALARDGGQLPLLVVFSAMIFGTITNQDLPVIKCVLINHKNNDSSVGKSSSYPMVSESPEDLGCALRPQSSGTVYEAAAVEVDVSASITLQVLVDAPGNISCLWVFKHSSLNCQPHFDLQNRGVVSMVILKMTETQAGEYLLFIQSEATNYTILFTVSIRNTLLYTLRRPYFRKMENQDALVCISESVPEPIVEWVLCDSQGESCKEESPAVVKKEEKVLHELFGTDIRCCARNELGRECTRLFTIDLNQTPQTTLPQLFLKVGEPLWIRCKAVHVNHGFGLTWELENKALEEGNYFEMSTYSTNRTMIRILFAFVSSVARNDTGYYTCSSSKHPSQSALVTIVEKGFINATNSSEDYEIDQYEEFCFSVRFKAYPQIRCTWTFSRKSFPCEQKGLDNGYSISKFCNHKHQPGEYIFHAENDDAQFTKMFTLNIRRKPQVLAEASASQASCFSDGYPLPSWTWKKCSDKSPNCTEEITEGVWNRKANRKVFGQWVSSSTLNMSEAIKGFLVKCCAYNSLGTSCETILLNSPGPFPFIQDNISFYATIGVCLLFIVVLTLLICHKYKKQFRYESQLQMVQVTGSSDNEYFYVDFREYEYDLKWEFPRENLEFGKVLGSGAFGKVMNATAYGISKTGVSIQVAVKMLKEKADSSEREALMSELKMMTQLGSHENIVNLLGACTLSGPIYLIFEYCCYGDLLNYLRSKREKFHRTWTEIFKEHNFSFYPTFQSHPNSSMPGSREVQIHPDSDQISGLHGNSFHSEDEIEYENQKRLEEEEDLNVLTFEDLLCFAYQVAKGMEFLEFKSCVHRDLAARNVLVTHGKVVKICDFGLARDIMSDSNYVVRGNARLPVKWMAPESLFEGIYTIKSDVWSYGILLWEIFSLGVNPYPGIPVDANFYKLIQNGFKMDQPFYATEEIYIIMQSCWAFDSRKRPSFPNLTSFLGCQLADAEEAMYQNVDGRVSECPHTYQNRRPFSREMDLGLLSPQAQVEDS
Description: Binding affinity to FLT3 catalytic domain expressed in HEK293 cells by competitive binding assay

MV4-11 = assay: cells; conditions: Homo sapiens, MV4-11, 72 h
Description: Antiproliferative activity against human MV4-11 cells after 72 hrs by cell titer-blue cell viability assay

in vivo [2] = conditions: athymic nude, mouse, po, 10 mg/kg
Description: Cmax in athymic nude mouse at 10 mg/kg, po

in vivo [3] = conditions: athymic nude, mouse, plasma, po, 10 mg/kg
Description: AUC (0 to infinity) in athymic nude mouse at 10 mg/kg, po

in vivo [4] = conditions: athymic nude, mouse, po, 10 mg/kg; remark: listed apart in the source
Description: Half life in athymic nude mouse at 10 mg/kg, po

Row | SMILES | Kd [1] | IC50 (MV4-11) | Cmax (in vivo [2]) | AUC(0-inf) (in vivo [3]) | half-life (in vivo [4])
1 | CC(C)(C)c1cc(NC(=O)Nc2ccc(-c3cn4c(n3)sc3ccc(OCCN5CCOCC5)cc34)cc2)no1 | 2.3 nM | 0.56 nM |  |  | 
2 | CC(C)(C)c1cc(NC(=O)Nc2ccc(-c3cn4c(n3)sc3cc(OCCCN5CCOCC5)ccc34)cc2)no1 | 0.99 nM | 0.79 nM |  |  | 
3 | CC(C)(C)c1cc(NC(=O)Nc2ccc(-c3cn4c(n3)sc3cc(CCC(=O)N5CCOCC5)ccc34)cc2)no1 | 1.5 nM | 0.23 nM |  |  | 
4 | CC(C)(C)c1cc(NC(=O)Nc2ccc(-c3cn4c(n3)sc3cccc(OCCN5CCOCC5)c34)cc2)no1 | 5.2 nM | 9.3 nM |  |  | 
5 | CC(C)(C)c1cc(NC(=O)Nc2ccc(-c3cn4c(n3)sc3ccccc34)cc2)no1 | 1.9 nM | 0.35 nM |  |  | 
6 | CC(C)(C)c1cc(NC(=O)Nc2ccc(-c3cn4c(n3)sc3cc(CCC(=O)O)ccc34)cc2)no1 | 1.3 nM | 0.41 nM |  |  | 
7 | CC(C)(C)c1cc(NC(=O)Nc2ccc(-c3cn4c(n3)sc3cc(OCCCN5CCN(S(C)(=O)=O)CC5)ccc34)cc2)no1 | 9.7 nM | 1.1 nM | 1580 nM | 11.7 µM·h | 4.6 h

Further lines, results first:

Row | Kd [1] | IC50 (MV4-11) | Cmax (in vivo [2]) | AUC(0-inf) (in vivo [3]) | half-life (in vivo [4]) | SMILES
8 | 1.7 nM | 0.78 nM |  |  |  | CN1CCN(CCCOc2ccc3c(c2)sc2nc(-c4ccc(NC(=O)Nc5cc(C(C)(C)C)on5)cc4)cn23)CC1
9 | 0.98 nM | 0.41 nM | 490 nM | 0.67 µM·h | 6.7 h | CCN1CCN(C(=O)c2ccc3c(c2)sc2nc(-c4ccc(NC(=O)Nc5cc(C(C)(C)C)on5)cc4)cn23)CC1
10 | 2 nM | 0.66 nM |  |  |  | CCN1CCN(C(=O)CCc2ccc3c(c2)sc2nc(-c4ccc(NC(=O)Nc5cc(C(C)(C)C)on5)cc4)cn23)CC1
11 | 1.5 nM | 0.88 nM |  |  |  | CC(C)(C)c1cc(NC(=O)Nc2ccc(-c3cn4c(n3)sc3cc(OCCN5CCCCC5)ccc34)cc2)no1
12 | 2.7 nM | 0.15 nM |  |  |  | CC(C)(C)c1cc(NC(=O)Nc2ccc(-c3cn4c(n3)sc3cc(O)ccc34)cc2)no1
13 | 1.2 nM | 0.62 nM |  |  |  | CN1CCN(c2ccc3c(c2)sc2nc(-c4ccc(NC(=O)Nc5cc(C(C)(C)C)on5)cc4)cn23)CC1
14 | 1.1 nM | 0.38 nM |  |  |  | CCN1CCN(Cc2ccc3c(c2)sc2nc(-c4ccc(NC(=O)Nc5cc(C(C)(C)C)on5)cc4)cn23)CC1
15 | 1.3 nM | 0.53 nM | 2190 nM | 14.6 µM·h | 2.3 h | CC(C)(C)c1cc(NC(=O)Nc2ccc(-c3cn4c(n3)sc3cc(CCCN5CCOCC5)ccc34)cc2)no1
16 | 1.6 nM | 1 nM | 2090 nM | 21.3 µM·h | 4.5 h | CC(C)(C)c1cc(NC(=O)Nc2ccc(-c3cn4c(n3)sc3cc(C(=O)O)ccc34)cc2)no1
